Source: patent US10988500B2, “Lipid A mimics, methods of preparation, and uses thereof” (Immunovaccine Technologies Inc., priority 2015, dated 2021)

Experiments:
[1] = system: C3 tumors (HPV16-expressing C3 cells); assay: C3 tumor challenge, aqueous liposome vaccine (Example 10); type: in vivo, mouse (C57BL6); conditions: for Tumor Volume (mm^3): Table 1, Example 10, FP peptide 10 micrograms + lipid A mimic 10 micrograms in liposomes, water carrier, s.c. on day 5 after C3 implantation; for tumor volumes compared to control groups: at 28 days, liposome vaccine, FIG. 4
Excerpt: (§1) Pathogen-free, female C57BL6 mice, 6-8 weeks of age were purchased from Charles River Laboratories (St. Constant, Quebec, Canada) and were housed according to institutional guidelines with water and food ad libitum under filter controlled air circulation.
(§2) The C3 tumor cell line used in this study is a well-described mouse model for pre-clinical cervical cancer research. HPV16-expressing C3 cells are derived from B6 mouse embryo cells transformed with the complete HPV16 genome under its own promoter and an activated-ras oncogene. The C3 cell line develops tumors when injected subcutaneously and has been used in cancer challenge studies to examine the efficacy of vaccine administered before or after C3 tumor cell implantation. The C3 cell line was maintained in Iscove Modified Dulbecco's Medium (IMDM; Sigma, St. Louis, Mo.) supplemented with 10% heat-inactivated fetal calf serum (Hyclone), 2 mM 1-glutamine, […] 2-mercaptoethanol, penicillin and streptomycin. Cells were incubated at 37° C./5% CO2.
(§3) The HPV16E7 (H-2Db) peptide 49-67, RAHYNIVTF (SEQ ID NO: 1), containing a CTL epitope was fused to PADRE containing a CD4+ T helper epitope by Polypeptide Group (San Diego, Calif., USA). This peptide is hereafter designated as FP.
To formulate the vaccines herein, 160 micrograms of FP was mixed with a DOPC/cholesterol mixture (10:1, w/w, Lipoid GmbH, Germany) dissolved in tert-butanol. When lipid A mimics were included, 160 micrograms of JL-265 or JL-266 were added to the FP/DOPC/chol mixture. The mixture was lyophilized and then reconstituted in reconstituted in […] of sterile water to formulate liposomes containing antigen with or without lipid A mimic. Each vaccine dose was 50 microlitres and contained 10 micrograms of FP peptide with or without 10 micrograms of lipid A mimic (JL-265 or JL-266).
(§4) To test the efficacy of these liposome-based vaccine formulations, groups of mice (7 mice per group) were implanted subcutaneously in the left flank with 5×10E5 C3 cells suspended in 100 microlitres of HBSS media. Five days later, mice were vaccinated subcutaneously in the right flank with 50 microlitres of vaccine. Mice in Group 1 were vaccinated with FP peptide (10 micrograms) in liposomes containing no lipid A mimic. Mice in Group 2 were vaccinated with FP peptide (10 micrograms) in liposomes containing JL-265 (10 micrograms). Mice in Group 3 were vaccinated with FP peptide (10 micrograms) in liposomes containing JL-266 (10 micrograms). Mice in Group 4 served as a tumor growth control and were vaccinated with saline containing no antigen or lipid A mimic.

[2] = system: C3 tumors (HPV16-expressing C3 cells); assay: C3 tumor challenge, oil-based (IFA) vaccine (Example 11); type: in vivo, mouse (C57BL6); conditions: at 28 days; FP peptide 10 micrograms in oil (IFA) with 10 micrograms lipid A mimic, FIG. 5
Excerpt: as §1, §2, §3
To formulate the vaccine herein, FP peptide was solubilized in dimethyl sulfoxide and mixed with Incomplete Freund's adjuvant (IFA). […]

[3] = system: C3 tumors (HPV16-expressing C3 cells); assay: C3 tumor challenge, DepoVax (DPX) vaccine (Example 12); type: in vivo, mouse (C57BL6); conditions: for tumor volume fold smaller than control DepoVax composition (Group 1): Table 2, DepoVax; for Tumor Volume (mm^3): Table 2, Example 12, FP peptide 10 micrograms + lipid A mimic 10 micrograms in DepoVax, s.c. on day 5 after C3 implantation; for tumor volumes compared to control groups: at 40 days, DPX vaccine, FIG. 6
Excerpt: as §1, §2, §3
(§5) To formulate vaccines described herein, a 10:1 mixture of dioleoyl phosphatidylcholine (DOPC) (120 milligrams/mL) and cholesterol (12 milligrams/mL) was solubilized in tert-butanol. FP antigen was first solubilized in dimethyl sulfoxide, although a water suspension of FP can also be used, and then added to the DOPC/cholesterol/tert-butanol mixture. The lipid A mimics JL-265 and JL-266 were first solubilized in dimethyl sulfoxide. Where indicated, JL-265 or JL-266 were also added to the FP/DOPC/tert-butanol mixture. A dry homogeneous mixture of antigen with or without lipid A mimic was prepared by removing the solvent and water present in the formulation by lyophilization. The dry mixture was then suspended in Incomplete Freund's adjuvant, a mineral oil-based model hydrophobic carrier. This formulation is henceforth referred to as DepoVax (DPX).
as §4, with “oil-based” for “liposome-based”, “(8” for “(7”, “DPX” for “liposomes”

[4] = system: bone marrow dendritic cells of C3H/HeOuJ (wild-type) mice; assay: Dendritic cell activation (CD40/CD86, flow cytometry), wild-type cells (Example 13); type: cell-based, mouse; conditions: FIG. 7; for expression of CD40 and CD86 on CD11c positive dendritic cells: wild-type dendritic cells, 20 micrograms/millilitre, overnight stimulation; for induction of CD40 and CD86 relative to LPS: wild-type mice dendritic cells
Protocol: (§6) Pathogen-free, female C3H/HeOuJ (wild-type) mice and C3H/HeJ (TLR4 mutant) mice, 6-8 weeks of age were purchased from the Jackson Laboratory (Bar Harbor, Me., USA) and were housed according to institutional guidelines with water and food ad libitum under filter controlled air circulation.
(§7) Dendritic cells were prepared from bone marrow of either wild-type or TLR4 mutant mice as follows. Femurs and tibia bones were isolated from naïve mice and flushed under sterile conditions with phosphate buffered saline. Red blood cells were lysed using ammonium chloride potassium lysing solution. Cells were counted and resuspended in complete RMPI 1640 media containing 10% fetal bovine serum (Hyclone, Nepean, ON, Canada), 1% penicillin-streptomycin (Gibco, Burlington, ON, Canada), 2 millimolar L-glutamine (Gibco), 1% HEPES buffer (Gibco) and […] beta-mercaptoethanol (Sigma-Aldrich, Oakville, ON, Canada) at a concentration of 1.2×10E6 cells/millitre. Cells were cultured in a 6-well plate supplemented with 10 nanograms/milliliter of GM-CSF (Peprotech, Rocky Hill, N.J., USA) for 8 days, additional media was added on day 3 and day 6. On day 7, cells were stimulated with JL-265 or JL-266 prepared in DMSO, or DMSO vehicle control, or poly I:C (Thermo-Fisher), or lipopolysaccharide (LPS; Sigma-Aldrich). Non-adherent cells were collected on day 8 and stained with fluorochrome-conjugated antibodies specific for CD11c (clone), CD40 (clone) or CD86 (Clone). Cells were analyzed by flow cytometry using a FACSCalibur (BD Bioscience, Mississauga ON, Canada) and Win List 3D 7.0 software (Verity Software House, Topsham, Me., USA).
(§8) Results were analysed by gating first on CD11c positive cells (dendritic cell marker), then determining the percent that were double positive for CD40 or CD86.

[5] = system: bone marrow dendritic cells of C3H/HeJ (TLR4 mutant) mice; assay: Dendritic cell activation (CD40/CD86, flow cytometry), TLR4 mutant cells (Example 13); type: cell-based, mouse; conditions: FIG. 7; for expression of CD40 and CD86 on CD11c positive dendritic cells, versus wild-type: TLR4 mutant dendritic cells, 20 micrograms/millilitre, overnight stimulation; for induction of CD40 and CD86 relative to LPS: TLR mutant mice dendritic cells
Protocol: as §6, §7, §8

[6] = system: antigen-specific IFN-gamma response to R9F peptide (splenocytes); assay: IFN-gamma ELISPOT immunogenicity of DPX vaccine (Example 14); type: in vivo, mouse (C57BL6); conditions: R9F+F21E in DPX with 5 micrograms lipid A mimic, FIG. 8; for enhancement of antigen-specific IFN-gamma response to R9F: s.c., spleens eight days after vaccination
Excerpt: as §1
The peptides used in this example were synthesized by Polypeptide Group (San Diego, Calif., USA). Vaccines contained the MHC class I epitope HPV16E7 (H-2Db) 49-67 (RAHYNIVTF, R9F; […]; SEQ ID NO: 23).
as §5, with “R9F and F21E peptide antigens were” for “FP antigen was”, “sulfoxide” for “sulfoxide, although a water suspension of FP can also be used,”
To test the immunogenicity of the vaccine, naïve mice (n=5) were immunized subcutaneously with 50 microlitres of DPX vaccine containing R9F and F21E with no lipid A mimic (Group 1), 5 micrograms of JL-265 (Group 2) or 5 micrograms of JL-266 (Group 3). Mice in Group 4 (n=2) were not immunized and served as the naïve control. Eight days after vaccination, mice in all groups were terminated and spleens collected. A single cell suspension of splenocytes was prepared at a concentration of 5×10E6 cells per milliliter and 100 microlitres added to wells of a 96-well ELISPOT plate pre-coated with anti-IFN-gamma (BD Bioscience). In duplicate, 100 microlitres of media containing 20 micrograms per milliliter of an irrelevant peptide antigen or R9F was added to the splenocytes, or media containing no peptide as a background control. The plate was incubated overnight at 37° C. and developed next day following manufacturers instructions using AEC chromogen (Sigma-Aldrich). Spots were quantified using ELISPOT plate reader (C.T.L., Shaker Heights).

Molecule	Tumor Volume (mm^3) [1] [mm^3]	tumor volumes compared to control groups [1]	tumor volumes compared to control groups [2]	tumor volume fold smaller than control DepoVax composition (Group 1) [3]	Tumor Volume (mm^3) [3] [mm^3]	tumor volumes compared to control groups [3]	expression of CD40 and CD86 on CD11c positive dendritic cells [4]	induction of CD40 and CD86 relative to LPS [4]	expression of CD40 and CD86 on CD11c positive dendritic cells, versus wild-type [5]	induction of CD40 and CD86 relative to LPS [5]	enhancement of antigen-specific IFN-gamma response to R9F ([6]; versus no lipid A mimic)	increase in the immune response (IFN-gamma ELISPOT) ([6]; versus no lipid A mimic) [fold]	generation of an immune response (IFN-gamma ELISPOT) [6]	expression of CD40 and CD86 on CD11c positive dendritic cells, versus wild-type ([5]; listed as polyI:C)
CCCCCCCCCCCCCC(=O)O[C@H](CCCCCCCCCCC)CC(=O)NC1C(OC(=O)C[C@@H](CCCCCCCCCCC)OC(=O)CCCCCCCCCCCCC)[C@H](OP(=O)(O)O)C(CO)O[C@H]1OCCN(C(=O)C[C@@H](CCCCCCCCCCC)OC(=O)CCCCCCCCCCCCC)c1cccc(OP(=O)(O)O)c1 (stereo in doubt) [JL-266]	380 ± 86	significantly smaller tumor volumes	significantly smaller tumor volumes	~6.3 fold	219 ± 139	significantly smaller tumor volumes	strong increased expression	the same as LPS	significantly reduced	slightly lower induction	did	~2	–	–
CCCCCCCCCCCCCC(=O)O[C@H](CCCCCCCCCCC)CC(=O)NC1C(OC(=O)C[C@@H](CCCCCCCCCCC)OC(=O)CCCCCCCCCCCCC)[C@H](OP(=O)(O)O)C(CO)O[C@H]1OCCN(C(=O)C[C@@H](CCCCCCCCCCC)OC(=O)CCCCCCCCCCCCC)c1cccc(O)c1 (stereo in doubt) [JL-265]	319 ± 122	significantly smaller tumor volumes	significantly smaller tumor volumes	about 3.1 fold	445 ± 395	significantly smaller tumor volumes	strong increased expression	the same as LPS	significantly reduced	slightly lower induction	did not enhance	–	capable of generating an immune response	–
lipopolysaccharide [LPS, reference compound]	–	–	–	–	–	–	increase in expression	–	significantly reduced	–	–	–	–	–
poly I:C [reference compound]	–	–	–	–	–	–	increase in expression	–	comparably to wild-type dendritic cells	–	–	–	–	comparable stimulation
